Laboratory results reported in patent US20080234233A1, “MEDICAMENT FOR TREATMENT OF NEURODEGENERATIVE DISEASES” (INSTITUTE OF MEDICINAL MOLECULAR DESIGN INC., priority 2002, published 2008).

Test system: NF-κ B activation
Test: Inhibitory activity of NF-κB activation, luciferase reporter assay under TNF-α stimulation in HepG2
Format: cell-based, human
Conditions: HepG2, TNF-α 40 ng/ml, 4 hours; for inhibition at 1 µg/mL / inhibition at 10 µg/mL: Homo sapiens, read-out: Inhibitory rate against NF-κB activation (%)
How it was run: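 HepG2 cells transiently transfected with luciferase reporter carrying five tandem NF-κB binding sites, then stimulated with TNF-α (40 ng/ml) ± compound for 4 hours. Luminescent luciferase activity measured; inhibition expressed relative to activity without compound.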

| Compound | inhibition at 1 µg/mL (Drug concentration at 1 μg/mL) [%] | inhibition at 10 µg/mL (Drug concentration at 10 μg/mL) [%] | Inhibitory rate against NF-κB activation (%) (Drug concentration at 1 μg/mL) | Inhibitory rate against NF-κB activation (%) (Drug concentration at 10 μg/mL) |
| --- | --- | --- | --- | --- |
| CCCCc1nc(NC(=O)c2cc(Br)ccc2O)sc1-c1ccccc1 [compound 198, 5-Bromo-N-(4-butyl-5-phenylthiazol-2-yl)-2-hydroxybenzamide] | 46.1 | 88.7 |  |  |
| Cc1ccc(S(=O)(=O)c2ccc(Cl)c(NC(=O)c3cc(Cl)ccc3O)c2)cc1 [compound 169] |  |  | 31.6 | 95.9 |
| CC(=NOCc1ccccc1)c1ccc(O)c(C(=O)Nc2cc(C(F)(F)F)cc(C(F)(F)F)c2)c1 [compound 15] |  |  | 94.5 | 99.2 |
| C[Si](C)(C)C#Cc1ccc(O)c(C(=O)Nc2cc(C(F)(F)F)cc(C(F)(F)F)c2)c1 [compound 20, N-[3,5-bis(trifluoromethyl)phenyl]-2-hydroxy-5-[(trimethylsilyl)ethynyl]benzamide] | 91.1 | 94.9 |  |  |
| Cc1ccc(C(=O)c2ccccc2)c(NC(=O)c2cc(Cl)ccc2O)c1 [compound 267] |  |  | 28.6 |  |
| COc1cc(Cl)nc(NC(=O)c2cc(Cl)ccc2O)n1 [compound 241] |  |  | 25.5 | 78.9 |
| COc1ccc(OC)c(NC(=O)c2cc3ccccc3cc2O)c1 [compound 183] |  |  |  | 86.8 |
| O=C(Nc1cc(C(F)(F)F)ccc1Oc1ccc(Cl)cc1)c1cc(Cl)ccc1O [compound 118] |  |  | 95.0 | 99.5 |
| O=C(Nc1cc(C(F)(F)F)cc(C(F)(F)F)c1)c1scc(Br)c1O [compound 74, 4-Bromo-3-hydroxy-N-[3,5-bis(trifluoromethyl)phenyl]thiophene-2-carboxamide] | 64 | 97.5 |  |  |
| O=C(Nc1cc(C(F)(F)F)ccc1Br)c1cc(Cl)ccc1O [compound 107] |  |  | 94.9 | 96.2 |
| O=C(Nc1cc(C(F)(F)F)cc(C(F)(F)F)c1)c1cc(S(=O)(=O)Nc2cc(C(F)(F)F)cc(C(F)(F)F)c2)ccc1O [compound 247] |  |  |  | >99.9 |
| COc1ccc(C(C)(C)c2ccccc2)cc1NC(=O)c1cc(Cl)ccc1O [compound 173] |  |  | 86.4 | 98.3 |
| O=C(Nc1cc(C(F)(F)F)cc(C(F)(F)F)c1)c1ccc(O)cc1O [compound 55] |  |  | 10.8 | 88.6 |
| O=C(Nc1cc(C(F)(F)F)cc(C(F)(F)F)c1)c1ccc(O)c(C(=O)Nc2cc(C(F)(F)F)cc(C(F)(F)F)c2)c1 [compound 37] |  |  |  | 94.5 |
| O=C(Nc1cc(C(F)(F)F)cc(C(F)(F)F)c1)c1cc(Br)c(O)cc1O [compound 54] |  |  |  | 86.5 |
| CCc1nc(NC(=O)c2cc(Br)ccc2O)oc1CC [compound 234, 5-Bromo-N-(4,5-diethyloxazol-2-yl)-2-hydroxybenzamide] | 29.1 | 63.1 |  |  |
| CC(C)c1cc(Br)cc(C(=O)Nc2cc(C(F)(F)F)cc(C(F)(F)F)c2)c1O [compound 257] |  |  | >99.9 |  |
| O=C(Nc1cc([N+](=O)[O-])ccc1Cl)c1cc(Cl)ccc1O [compound 156] |  |  | 93.8 | 95.7 |

| Compound | inhibition at 1 µg/mL (Drug concentration at 1 μg/mL) [%] | inhibition at 10 µg/mL (Drug concentration at 10 μg/mL) [%] | Inhibitory rate against NF-κB activation (%) (Drug concentration at 1 μg/mL) | Inhibitory rate against NF-κB activation (%) (Drug concentration at 10 μg/mL) |
| --- | --- | --- | --- | --- |
| CCOC(=O)c1sc(NC(=O)c2cc(-c3cccs3)ccc2O)nc1-c1ccccc1 [compound 230, 2-[2-Hydroxy-5-(2-thienyl)benzoyl]amino-4-phenylthiazole-5-carboxylic acid ethyl ester] | 40.8 | 84.8 |  |  |
| O=C(Nc1cc(-c2ccccc2)[nH]n1)c1cc(Br)ccc1O [compound 233] |  |  | 26.6 | 84.7 |
| CN(C)C(=O)c1ccc(O)c(C(=O)Nc2cc(C(F)(F)F)cc(C(F)(F)F)c2)c1 [compound 38, N^3-[3,5-bis(trifluoromethyl)phenyl]-4-hydroxy-N^1,N^1-dimethylisophthalamide] | 16 | 87.1 |  |  |
| COc1ccc(-n2cccc2)c(NC(=O)c2cc(Cl)ccc2O)c1 [compound 167] |  |  | 76.4 | 98.7 |
| CCNC(=O)c1sc(NC(=O)c2cc(Br)ccc2O)nc1-c1ccccc1 [compound 221] |  |  | 51.9 | 84.0 |
| CCOC(=O)c1sc(NC(=O)c2cc(-n3cccc3)ccc2O)nc1-c1ccccc1 [compound 229] |  |  | 74.0 | 90.1 |
| CC(C)NC(=O)c1sc(NC(=O)c2cc(Br)ccc2O)nc1-c1ccccc1 [compound 222] |  |  | 49.6 | 91.3 |
| CON=C(C)c1ccc(O)c(C(=O)Nc2cc(C(F)(F)F)cc(C(F)(F)F)c2)c1 [compound 14] |  |  | 94.7 | 98.3 |
| O=C(Nc1cc(C(F)(F)F)cc(C(F)(F)F)c1)c1cc(N=Nc2ccc([N+](=O)[O-])cc2)ccc1O [compound 48] |  |  | 96.2 | 98.7 |
| O=C(Nc1cc(Cl)cc(Cl)c1)c1ccc(Cl)cc1O [compound 129] |  |  |  | 71.8 |
| O=C(Nc1cc(Br)cc(C(F)(F)F)c1)c1cc(Br)ccc1O [compound 86] |  |  | 96.7 | 98.7 |
| CC(=O)c1ccc(O)c(C(=O)Nc2cc(C(F)(F)F)cc(C(F)(F)F)c2)c1 [compound 12, 5-Acetyl-N-[3,5-bis(trifluoromethyl)phenyl]-2-hydroxybenzamide] | 86.3 | 99.2 |  |  |
| CC(C)(C)c1ccc(C(C)(C)C)c(NC(=O)c2cc(Cl)ccc2O)c1 [compound 134] |  |  | 89.1 | 96.3 |
| O=C(Nc1cc(C(F)(F)F)cc(C(F)(F)F)c1)c1cc(S(=O)(=O)n2cccc2)ccc1O [compound 42, N-[3,5-Bis(trifluoromethyl)phenyl]-2-hydroxy-5-(pyrrole-1-sulfonyl)benzamide] | 84.4 | 98.1 |  |  |
| CSc1ccc(C(F)(F)F)cc1NC(=O)c1cc(Cl)ccc1O [compound 96] |  |  | 94.6 | 99.1 |
| O=C(Nc1cnc2ccccc2c1)c1cc(Cl)ccc1O [compound 242] |  |  |  | 85.7 |
| O=C(Nc1ccc(Cl)nc1)c1cc(Cl)ccc1O [compound 240] |  |  | 14.3 | 92.3 |
| CC(C)(C)c1cc(NC(=O)c2cc(Br)ccc2O)cc(C(C)(C)C)c1 [compound 140] |  |  | 70.9 | 82.0 |
